US8574831B2, “Mutational profiles in HIV-1 reverse transcriptase correlated with phenotypic drug resistance” (Virco N.V., priority 2000, dated 2013)

System: HIV with mutations in the HIV protease sequence
Assay: Phenotypic fold resistance to protease inhibitors, protease mutations 84A/84L/84C/54M/54L/54V in a background (Examples 8-13)
Format: cell-based, HIV-1
Description: As is the case with the genotyping assays, the recombinant virus assay starts with the amplification of viral target sequences by means of PCR. The amplicons are incorporated into a proviral laboratory clone with sequences homologous to those present in the amplicon deleted. This generates a stock of chimeric viruses. The viruses are tested for their ability to grow in the presence of different concentrations of drugs. Results are obtained by calculating IC50 values for each inhibitor and by reporting the results as IC50 values, expressed in μM concentrations, or by computing the ratio of the IC50 values found for the chimeric virus to the IC50 values found for a wild type susceptible laboratory virus tested in parallel. In the latter case, resistance is expressed as “fold-resistance” compared to a wild-type susceptible HIV-1 strain. In order to meet the need for high-volume testing and a short turn-around time for an individual test, the latest generation of phenotyping assays has undergone further modifications. The use of reporter gene systems for susceptibility testing allows the implementation of laboratory automation and standardization. See Pauwels, et al., J. Virol. Methods 20, 309-321 (1998); Paulous, S., et al., International Workshop on HIV Drug Resistance, Treatment Strategies and Eradication, St. Petersburg, Fla., USA. Abstr. 46 (1997); and Deeks, S. G., et al., 2nd International Workshop on HIV Drug Resistance and Treatment Strategies, Lake Maggiore, Italy. Abstr. 53 (1998).
The ANTIVIROGRAM® assay (Virco) (WO 97/27480) is based on homologous recombination of patient derived HIV-1 gag/PR/RT sequences into a proviral HIV-1 clone correspondingly deleted for the gag/PR/RT sequences. See Pauwels, et al., J. Virol. Methods 20, 309-321 (1998). A similar assay (Phenosense ViroLogic) is based on enzymatic ligation of patient-derived PR/RT sequences into a correspondingly deleted proviral vector carrying an indicator gene, luciferase, inserted in the deleted HIV-1 envelope gene. See Deeks, S. G., et al., 2nd International Workshop on HIV Drug Resistance and Treatment Strategies, Lake Maggiore, Italy. Abstr. 53 (1998). Hertogs et al. Antimicrob. Agents Chemother. 44(3) 568-573 (2000) the disclosures of which are herein incorporated by reference.
The methods of monitoring HIV-1 drug resistance, may also be used in combination with phenotypic drug resistance testing of viral isolates. For example, in one embodiment, a phenotypic test is utilized that is based upon the construction of chimeric HIV-1 strains composed of the protease (PR) and reverse transcriptase (RT) gene sequences which are isolated and amplified from the patient viral RNA. These strains may subsequently be recombined inside CD4+ T cells with a standard laboratory isogenic (HXB2) HIV-1 DNA construct from which the PR/RT gene sequences were deleted. The recombinant strains may then be grown in the presence of the above-mentioned antiviral drugs and the susceptibility of the viral isolates may be expressed as fold-change value of the IC50 of the drug on the patient isolates over the IC50 of the drug on a wild-type laboratory reference strain.

## CC(C)c1nc(CN(C)C(=O)N[C@H](C(=O)N[C@@H](Cc2ccccc2)C[C@H](O)[C@H](Cc2ccccc2)NC(=O)OCc2cncs2)C(C)C)cs1 [Ritonavir, ritonavir]
Table 12, V055199, genotype 10I + 33F + 54M + 90M
  Fold change in IC50: 18.4 fold
Table 13, V19263, genotype 77I
  Fold change in IC50: 0.4 fold
Table 13, V20160, genotype WT
  Fold change in IC50: 0.6 fold
Table 13, V021667, genotype 10I
  Fold change in IC50: 1.2 fold
Table 13, V030496, genotype 10I + 77I
  Fold change in IC50: 0.5 fold
Table 13, V048868, genotype 10I + 54L + 71V + 77I + 90M
  Fold change in IC50: 9.7 fold
Table 13, V048874, genotype 10I + 33F + 54L + 71V + 77I + 90M
  Fold change in IC50: 21.3 fold
Table 13, V048875, genotype 10I + 33F + 54L + 71V + 77I + 90M
  Fold change in IC50: 25.1 fold
Table 13, V048877, genotype 10I + 33F + 77I + 90M
  Fold change in IC50: 20.5 fold
Table 13, V048880, genotype 10I + 33F + 77I + 90M
  Fold change in IC50: 3.6 fold
Table 13, V052940, genotype 71V
  Fold change in IC50: 0.4 fold
Table 13, V052942, genotype 10I + 71V
  Fold change in IC50: 0.6 fold
Table 13, V052943, genotype 10I + 90M
  Fold change in IC50: 1.8 fold
Table 13, V052944, genotype 10I + 90M
  Fold change in IC50: 1.5 fold
Table 13, V052945, genotype 77I + 90M
  Fold change in IC50: 1.9 fold
Table 13, V052946, genotype 71V + 90M
  Fold change in IC50: 2.0 fold
Table 13, V052947, genotype 10I + 77I + 90M
  Fold change in IC50: 6.9 fold
Table 13, V052948, genotype 10I + 71V + 90M
  Fold change in IC50: 10.5 fold
Table 13, V052949, genotype 10I + 71V + 77I + 90M
  Fold change in IC50: 2.3 fold
Table 13, V052950, genotype 33F
  Fold change in IC50: 1.5 fold
Table 13, V052951, genotype 33F + 77I
  Fold change in IC50: 0.3 fold
Table 13, V052953, genotype 10I + 33F + 77I
  Fold change in IC50: 1.1 fold
Table 13, V052954, genotype 33F + 77I + 90M
  Fold change in IC50: 2.2 fold
Table 13, V052955, genotype 33F + 71V + 90M
  Fold change in IC50: 77.9 fold
Table 13, V052968, genotype 10L/I + 33F/L + 54L + 77I
  Fold change in IC50: 4.7 fold
Table 13, V052969, genotype 10I + 33F + 54L + 90M
  Fold change in IC50: 4.8 fold
Table 13, V052970, genotype 54L
  Fold change in IC50: 2.0 fold
Table 13, V052971, genotype 10I + 54L
  Fold change in IC50: 1.5 fold
Table 13, V052972, genotype 54L + 77I
  Fold change in IC50: 2.4 fold
Table 13, V052973, genotype 10I + 54L + 77I
  Fold change in IC50: 1.4 fold
Table 13, V052974, genotype 10I + 54L + 90M
  Fold change in IC50: 3.6 fold
Table 13, V052975, genotype 10I + 54L + 71V + 90M
  Fold change in IC50: 30.5 fold
Table 13, V052976, genotype 10I + 54L + 71V + 77I + 90M
  Fold change in IC50: 6.5 fold
Table 13, V053832, genotype 10I + 33F
  Fold change in IC50: 2.9 fold
Table 13, V053854, genotype 54L + 71V
  Fold change in IC50: 2.3 fold
Virco ID 214846, genotype 10I + 33F + 54V + 71V + 77I + 90M, vs mean IC50 of wild type laboratory HIV strain
  Fold change in IC50: 57.6 fold
Virco ID V021667, genotype 10I, vs mean IC50 of wild type laboratory HIV strain
  Fold change in IC50: 1.2 fold
Virco ID V030496, genotype 10I + 77I, vs mean IC50 of wild type laboratory HIV strain
  Fold change in IC50: 0.5 fold
Virco ID V048876, genotype 33F + 54V + 77I + 90M, vs mean IC50 of wild type laboratory HIV strain
  Fold change in IC50: 5.6 fold
Virco ID V048877, genotype 10I + 33F + 77I + 90M, vs mean IC50 of wild type laboratory HIV strain
  Fold change in IC50: 20.5 fold
Virco ID V048880, genotype 10I + 33F + 77I + 90M, vs mean IC50 of wild type laboratory HIV strain
  Fold change in IC50: 3.6 fold
Virco ID V052940, genotype 71V, vs mean IC50 of wild type laboratory HIV strain
  Fold change in IC50: 0.4 fold
Virco ID V052942, genotype 10I + 71V, vs mean IC50 of wild type laboratory HIV strain
  Fold change in IC50: 0.6 fold
Virco ID V052943, genotype 10I + 90M, vs mean IC50 of wild type laboratory HIV strain
  Fold change in IC50: 1.8 fold
Virco ID V052944, genotype 10I + 90M, vs mean IC50 of wild type laboratory HIV strain
  Fold change in IC50: 1.5 fold
Virco ID V052946, genotype 71V + 90M, vs mean IC50 of wild type laboratory HIV strain
  Fold change in IC50: 2.0 fold
Virco ID V052947, genotype 10I + 77I + 90M, vs mean IC50 of wild type laboratory HIV strain
  Fold change in IC50: 6.9 fold
Virco ID V052948, genotype 10I + 71V + 90M, vs mean IC50 of wild type laboratory HIV strain
  Fold change in IC50: 10.5 fold
Virco ID V052949, genotype 10I + 71V + 77I + 90M, vs mean IC50 of wild type laboratory HIV strain
  Fold change in IC50: 2.3 fold
Virco ID V052950, genotype 33F, vs mean IC50 of wild type laboratory HIV strain
  Fold change in IC50: 1.5 fold
Virco ID V052951, genotype 33F + 77I, vs mean IC50 of wild type laboratory HIV strain
  Fold change in IC50: 0.3 fold
Virco ID V052953, genotype 10I + 33F + 77I, vs mean IC50 of wild type laboratory HIV strain
  Fold change in IC50: 1.1 fold
Virco ID V052954, genotype 33F + 77I + 90M, vs mean IC50 of wild type laboratory HIV strain
  Fold change in IC50: 2.2 fold
Virco ID V052955, genotype 33F + 71V + 90M, vs mean IC50 of wild type laboratory HIV strain
  Fold change in IC50: 77.9 fold
Virco ID V052957, genotype 10I + 33F + 54V + 90M, vs mean IC50 of wild type laboratory HIV strain
  Fold change in IC50: 13.9 fold
Virco ID V052958, genotype 10I + 33F + 54V + 77I + 90M, vs mean IC50 of wild type laboratory HIV strain
  Fold change in IC50: 16.6 fold
Virco ID V052959, genotype 10I + 33F + 54V + 77I + 90M, vs mean IC50 of wild type laboratory HIV strain
  Fold change in IC50: 28.5 fold
Virco ID V052960, genotype 10I + 33F + 54V + 71V + 90M, vs mean IC50 of wild type laboratory HIV strain
  Fold change in IC50: 70.9 fold
Virco ID V052961, genotype 54V, vs mean IC50 of wild type laboratory HIV strain
  Fold change in IC50: 1.2 fold
Virco ID V052962, genotype 10I + 54V, vs mean IC50 of wild type laboratory HIV strain
  Fold change in IC50: 1.0 fold
Virco ID V052963, genotype 54V + 77I + 90M, vs mean IC50 of wild type laboratory HIV strain
  Fold change in IC50: 2.0 fold
Virco ID V052964, genotype 54V + 71V + 90M, vs mean IC50 of wild type laboratory HIV strain
  Fold change in IC50: 7.1 fold
Virco ID V052965, genotype 10I + 54V + 77I + 90M, vs mean IC50 of wild type laboratory HIV strain
  Fold change in IC50: 12.5 fold
Virco ID V052966, genotype 10I + 54V + 71V + 90M, vs mean IC50 of wild type laboratory HIV strain
  Fold change in IC50: 44.5 fold
Virco ID V052967, genotype 10I + 54V + 71V + 77I + 90M, vs mean IC50 of wild type laboratory HIV strain
  Fold change in IC50: 0.7 fold
Virco ID V053358, genotype 33F + 54V + 77I + 90M, vs mean IC50 of wild type laboratory HIV strain
  Fold change in IC50: 4.9 fold
Virco ID V053831, genotype 33F + 54V, vs mean IC50 of wild type laboratory HIV strain
  Fold change in IC50: 129.7 fold
Virco ID V053832, genotype 10I + 33F, vs mean IC50 of wild type laboratory HIV strain
  Fold change in IC50: 2.9 fold
